# Data: patent publication US20260053794A1, “SOMATOSTATIN RECEPTOR 2 AGONISTS AND USES THEREOF” (Exelixis, Inc., priority 2022, published 2026)
# Biological target: T1, Somatostatin Receptor 2 (SSTR2) (Homo sapiens, UniProt P30874)
# T1 construct: expressed in transfected cells
# Assay: Biochemical Assay for Activation of Somatostatin Receptor 2 (SSTR2), Cisbio HTRF cAMP assay
# Type: cell-based
# Conditions: average pEC50; HTRF cAMP assay in stably-transfected cell line expressing SSTR2; cells incubated with compounds for 1-2h
# Method in brief: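 A stably transfected SSTR2 cell line was incubated with compounds for 1-2h. Intracellular cAMP was then measured by competitive HTRF (cAMP Gs dynamic system), and pEC50 values were averaged.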
# T1 sequence (P30874 whole entry, species assumed): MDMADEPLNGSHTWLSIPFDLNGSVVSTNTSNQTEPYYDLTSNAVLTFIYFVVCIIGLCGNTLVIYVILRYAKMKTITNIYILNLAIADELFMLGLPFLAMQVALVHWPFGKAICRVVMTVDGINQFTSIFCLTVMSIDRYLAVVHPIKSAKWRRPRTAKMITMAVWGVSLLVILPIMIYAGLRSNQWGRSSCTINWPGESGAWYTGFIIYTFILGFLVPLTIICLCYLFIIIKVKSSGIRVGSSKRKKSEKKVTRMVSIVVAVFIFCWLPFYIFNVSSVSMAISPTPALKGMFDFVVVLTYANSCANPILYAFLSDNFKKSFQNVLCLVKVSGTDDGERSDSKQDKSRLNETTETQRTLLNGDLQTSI
row,EC50,SMILES
1,100 nM,NC(=O)c1cc(F)cc(-c2cc3ncc(-c4cc(F)cc(F)c4)c(N4CCC(N)CC4)c3o2)c1 [Compound 128]
2,100 nM,COc1cc(F)cc(-c2cnc3cc(-c4ccc5[nH]c(=O)[nH]c5c4)oc3c2N2CCC(N)CC2)c1 [Compound 130]
3,> 10000 nM,N#Cc1cccc(-c2cc3c(N4CCC(N)CC4)c(-c4cc(F)cc(F)c4)cnc3o2)c1O [Compound 131]
4,> 10000 nM,N#Cc1cccc(-c2cc3ncc(-c4cc(F)cc(F)c4)c(N4CCC(N)CC4)c3s2)c1O [Compound 132]
5,1580 nM,NC1CCN(c2c(-c3cc(F)cc(F)c3)cnc3cc(-c4cc(F)cc(F)c4)sc23)CC1 [Compound 133]
6,631 nM,NC1CCN(c2c(-c3cc(F)cc(F)c3)cnc3sc(-c4cc(F)cc(F)c4)cc23)CC1 [Compound 134]
7,20 nM,Cc1cc(F)cc(-c2cnc3ccc(-c4cccc(C#N)c4O)cc3c2N2CCC(NC(=N)N)CC2)c1 [Compound 136]
8,> 10000 nM,N#Cc1cccc(-c2ccc3ncc(-c4cc(F)cc(F)c4)c(N4CC5(CNC5)C4)c3c2)c1O [Compound 137]
9,6310 nM,COCOc1c(C#N)cccc1-c1ccc2ncc(-c3cc(F)cc(F)c3)c(N3CC4(CNC4)C3)c2c1 [Compound 138]
10,> 5010 nM,COCOc1c(C#N)cccc1-c1ccc2ncc(-c3cc(F)cc(F)c3)c(N3CC4(CN(C(C)=O)C4)C3)c2c1 [Compound 139]
11,> 10000 nM,COCOc1c(C#N)cccc1-c1ccc2ncc(-c3cc(F)cc(F)c3)c(O[C@H]3CC[C@@H](NC(=O)OC(C)(C)C)C3)c2c1 [Compound 140]
12,> 10000 nM,COCOc1c(C#N)cccc1-c1ccc2ncc(-c3cc(F)cc(F)c3)c(OC3CCCC(NC(=O)OC(C)(C)C)C3)c2c1 (stereo not shown) [Compound 141]
13,0.501 nM,C=CCOc1c(C#N)cccc1-c1ccc2ncc(-c3cc(F)cc(F)c3)c(N3CCC(N)CC3)c2c1 [Compound 142]
14,> 10000 nM,COCOc1c(C#N)cccc1-c1ccc2ncc(-c3cc(F)cc(F)c3)c(-n3ccc([N+](=O)[O-])c3)c2c1 [Compound 143]
15,1260 nM,N#Cc1cccc(-c2ccc3ncc(-c4cc(F)cc(F)c4)c(-n4ccc(CN)c4)c3c2)c1O [Compound 144]
16,0.0316 nM,NC1CCN(c2c(-c3cc(F)cc(F)c3)cnc3ccc(-c4cc(F)cc(F)c4)cc23)CC1 [Compound 145]
17,398 nM,N#Cc1cccc(-c2ccc3ncc(-c4cc(F)cc(F)c4)c(N4CCC(O)CC4)c3c2)c1NCCCN [Compound 146]

row,EC50,SMILES
1,0.0398 nM,CCOC(=O)c1cc(-c2cc(F)cc(F)c2)cc2c(N3CCC(N)CC3)c(-c3cc(F)cc(F)c3)cnc12 [Compound 147]
2,> 794 nM,CC(C)(C)OC(=O)NC1CCN(c2c(-c3cc(F)cc(F)c3)cnc3c(C(=O)O)cc(-c4cc(F)cc(F)c4)cc23)CC1 [Compound 148]
3,0.398 nM,NC1CCN(c2c(-c3cc(F)cc(F)c3)cnc3c(C(=O)O)cc(-c4cc(F)cc(F)c4)cc23)CC1 [Compound 149]
4,1.58 nM,NC1CCN(c2c(-c3cc(F)cc(F)c3)cnc3ccc(C4=CC=CC5(O)C(=O)NCCN45)cc23)CC1 (stereo not shown) [Compound 151]
5,7.94 nM,NC1CCN(c2c(-c3cc(F)cc(F)c3)cnc3ccc(C4=CC=CC5(Cl)C(=O)NCCN45)cc23)CC1 (stereo not shown) [Compound 152]
6,3.16 nM,C=COc1c(C#N)cccc1-c1ccc2ncc(-c3cc(F)cc(F)c3)c(N3CC[C@H](N)[C@@H](O)C3)c2c1 [Compound 153]
7,0.316 nM,COc1c(C#N)cccc1-c1ccc2ncc(-c3cc(F)cc(F)c3)c(N3CCC(N)CC3)c2c1 [Compound 154]
8,631 nM,CC(N)CCN1CCc2c(-c3cc(F)cc(F)c3)ccc3ncc(-c4cc(F)cc(F)c4)c1c23 (stereo not shown) [Compound 155]
9,10 nM,CN1c2c(cnc3ccc(-c4cc(F)cc(F)c4)cc23)-c2cc(F)cc(F)c2C1CCN (stereo not shown) [Compound 157]
10,501 nM,NC1CCN(c2c(-c3cc(F)cc(F)c3)cnc3ccc(C4=CC=CN5CCNC(=O)C45O)cc23)CC1 (stereo not shown) [Compound 158]
11,0.398 nM,NCc1cc(-c2cc(F)cc(F)c2)cc2c(N3CCC(N)CC3)c(-c3cc(F)cc(F)c3)cnc12 [Compound 159]
12,0.0251 nM,NC1CCN(c2c(-c3cc(F)cc(F)c3)cnc3c(CO)cc(-c4cc(F)cc(F)c4)cc23)CC1 [Compound 160]
13,10 nM,Cc1cc(F)cc(-c2c[n+]3c4ccc(cc4c2N2CCC(N)CC2)-c2ccccc2OCCCC3)c1 [Compound 161]
14,1000 nM,Cc1cc(F)cc(-c2cnc3ccc(-c4ccccc4C4NCCCN4)cc3c2N2CCC(=O)CC2)c1 [Compound 162]
15,> 10000 nM,Cc1cc(F)cc(-c2cnc3ccc(-c4cccc(C#N)c4O)cc3c2N2CCC(=O)CC2)c1 [Compound 163]
16,> 10000 nM,Cc1cc(F)cc(-c2cnc3ccc(-c4cccc(C#N)c4O)cc3c2N2CCC(O)CC2)c1 [Compound 164]
17,12.6 nM,Nc1nc(Cl)ccc1C(=O)Nc1cncc(-c2ccccc2)c1N1CCC(N)CC1 [Compound 165]
